Experiment [1] has as its system human hepatoma cell HepG-2. Put plainly: cells. The following applies: 24 h. The class given is cell-based. Put shortly: (§1)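 MTT read-out of viability; cancer lines plus normal 2B epithelial cells. Lines authenticated by morphology, gene/protein expression.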
Experiment [2] has as its system human colon cancer cell HCT-116. Put plainly: cells. The class given is cell-based. The following applies: 24 h. Put shortly: (§2)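 Cytotoxicity in Kasumi, HepG-2, SGC-7901 and normal lung epithelial 2B cells, among other human tumour lines, was measured by MTT assay.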
The test system of experiment [3] is human breast adenocarcinoma cells MDA-MB-231. Briefly: cells. The class given is cell-based. The following applies: 24 h. Put shortly:
as §2

The test system of experiment [4] is human breast adenocarcinoma cells MCF7. Briefly: cells. The class given is cell-based. To be noted: 24 h. Put shortly: (§3)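 Cells were exposed to compounds and viability was then quantified by MTT assay, per an earlier published method. Panel included leukemia Kasumi, hepatoma HepG-2, gastric SGC-7901 and normal lung epithelial 2B cells.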
Experiment [5] concerns human gastric cancer cell SGC-7901. Put plainly: cells. To be noted: 24 h. The class given is cell-based. Put shortly: (§4)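 Compound cytotoxicity is assessed with the MTT method in human cancer cells and normal 2B lung epithelial cells.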
Experiment [6] relates to human lung epithelial normal cell 2B. Put plainly: cells. The class given is cell-based. To be noted: 24 h. Summed up: as §1
The test system of experiment [7] is human acute lymphoblastic leukemia cells K562. Put plainly: cells. The class given is cell-based. To be noted: 24 h. Summed up:
as §3

The test system of a further experiment is human cells Kasumi. Briefly: MTT cytotoxicity assay, Kasumi. The class given is cell-based. The following applies: 24 h. Summed up:
as §4

The next experiment has as its system HepG2 cells. Put plainly: Cell numbers of HepG2 after compound treatment. To be noted: HepG2, 1.5 × 10^5 cells/well plated, compound 5 μg/mL, 3 h; mean of n = 3. In kind it is cell-based, human. The protocol: Comparing the concentration of compounds (7, 10, 10a) in extracellular and intracellular after the HepG2 cell line dealt with compounds. HepG2 cells were plated in six-well plates at a density of 1.5 × 10^5 cells/well and grew overnight. After cell treated with compounds (5 μg/mL) for 3 h, the compounds were extracted with MeOH for cells culture medium and cells separately as followed the reported method. The compounds were quantified by LC‒MS (5%‒95% ACN in 15 min). The cell numbers of HepG2 with the compounds treatments was determined. […]
To determine whether the difference in bioactivity of products (with or without Put moiety) is due to variations in cellular uptake, we treated hepatoma cell line HepG2 with compounds 7 (C12 acyl), 10 (C14 acyl), and 10a (C14 acyl and without Put) (Supplementary Fig. 33c). The cells were treated for 3 h, and then culture medium and cells were extracted separately. LC-MS was used to detect and quantify the compounds.
At lower concentrations (5000 ng/mL, and 10,000 ng in total for each group), and […]
may be contributing to the differences in antitumor activity (Supplementary Fig. 33b).
This could be due to differences in the speed of cellu lar uptake or differences in drug metabolism rate, requiring further experimental investigation.

The subject of the next experiment is native host DSM 7029. Briefly: Inhibition zone test on the native host DSM 7029. To be noted: same method as for the seven tested strains. In kind it is cell-based, Schlegelella brevitalea DSM 7029. The source says: The two human acute lymphoblastic leukemia cells K562 and Kasumi, two human breast adenocarcinoma cells MCF7 and MDA-MB-231, human hepatoma cell HepG-2, human lung adenocarcinoma cell A549, human gastric cancer cell SGC-7901, human colon cancer cell HCT-116, human ovarian cancer cell line SKOV3, or human lung epithelial normal cell 2B were obtained from Beyotime Biotechnology and utilized to test the cytotoxicity of compounds by MTT assays as previous study. The anti-inflammatory effect of the compounds was detected by the influence on the increase in the level of nitric oxide caused by lipopolysaccharide (LPS) based on the classic Griess method. RAW 264.7 cells (Shanghai Institutes for Biological Science) were seeded in 96-well plates and incubated for 24 h. Then, cells were treated with compounds 29, 29a, 31, and 31a (0-80 μM) for 30 min, followed by co-treatment with LPS ([…]) for another 24 h. The Nitric Oxide assay kit with Griess reagents (Beyotime, Lot: S0021, Shanghai, China) was used to examine cellular supernatant nitrite accumulation, which represents cellular NO levels. The OD value of 540 nm absorbance was detected with a microplate reader. Their authentication in the laboratory was performed regularly based on morphology and gene/protein expression. […]

The next experiment has as its system PvdQ-like acylase GdnD. Briefly: Deacylation by acylase GdnD (cell lysate, LC-MS). The following applies: 100 μL E. coli cell lysate with GdnD, 5 μL 10 mM substrate, 30 °C; 7 and 8: 4 h, 16 h, 27 h; other substrates 16 h; boiled lysate as control. In kind it is biochemical, Schlegelella brevitalea DSM 7029. The method, then:
The hydrolysis function of PvdQ-like acylase GdnD was tested. GdnD is predicted to be a periplasmic protein by PSORTb[13]. The collected pellet from 50 mL LB dissolved with 8 mL buffer C (50 mM Tris, 300 mM NaCl, 5 mM MgCl2, pH 7.6), and lysed by cell disruption. Then, one hundred microliter of the cell lysate was incubated with 5 μL 10 mM substrates 7 and 8 for 4 h, 16 h, and 27 h at 30 °C. The negative control was boiled cell lysate. The other substrates (13, 14, 15, 16, and 17) incubated with the cell lysate dealt for 16 h at 30 °C. Then, the reaction was stopped by the addition of the 100 μL MeOH, and the final mixture was checked by LC‒MS analysis (5%‒95% ACN in 15 min) according to the above condition.

Experiment [8] has as its system human lung adenocarcinoma cell A549. Briefly: MTT cytotoxicity assay, A549. The class given is cell-based. To be noted: 24 h. Put shortly:
as §2

The values that follow come from PMC10587159, “Biosynthesis and engineering of the nonribosomal peptides with a C-terminal putrescine” (Nature Communications, 2023).

Non-standard residues stand in square brackets, D forms with d. Residues, ends and D or L forms follow the SMILES beside them. *: point of attachment. Lauroyl = CCCCCCCCCCCC(=O)*; NH(CH2)4NH2 = NCCCCN* Some results are limits rather than exact numbers.

As usually defined, the IC50 is the concentration at which inhibition is half-maximal. A lower IC50 goes with inhibition by little substance. With `CCCCCCCCCCCC(=O)N[C@H](CCSC)C(=O)N[C@H](CC(N)=O)C(=O)N1CCC[C@H]1C(=O)N[C@H](C(=O)N[C@H](Cc1ccccc1)C(=O)N1CCC[C@H]1C(=O)N[C@@H](Cc1c[nH]c2ccccc12)C(=O)N[C@@H](C(=O)N[C@@H](C)C(=O)N[C@H](C)C(=O)N[C@@H](CO)C(=O)N[C@@H](C)C(=O)NCCCCN)C(C)C)C(C)C` [Compound 7, Glidonin G] (Lauroyl-[dM][dN]PV[dF]PW[dV]A[dA]SA-{NH(CH2)4NH2}), the IC50 in [1] is 8.3 ± 0.57 µM; in experiment [2], more than 20 µM; in experiment [3], 4.76 ± 0.79 µM; in experiment [4] it was more than 20 µM; in [5] it was more than 20 µM; in experiment [6] it was 11.7 ± 1.5 µM. Moreover, the half-maximal inhibitory concentration (IC50) in [7] was found to be 13.5 ± 4.44 µM; in the experiment on human cells Kasumi it was 7.93 ± 0.35 µM; in experiment [8], 7.64 ± 1.11 µM. Further, in the experiment on HepG2 cells, the “The cell numbers, Average” value was found to be 1323333. For the same compound, in the experiment with native host DSM 7029, the “inhibition of native host DSM 7029, inhibition zone method” value is reported as “no inhibition”. The “deacylation by GdnD, nonacylated product by LC-MS” value in the experiment on PvdQ-like acylase GdnD is “nonacylated products 1 and 2 were detected”.
